Reference: US5677327A, “Method for identifying muscarinic agents lacking miotic side effects” (priority 1995, dated 1997)
Read-outs that look alike come from different tables or passages of the source.

Experiments:
[1] = molecular target: T1, human m3 receptor subtype (Homo sapiens, UniProt P20309); assay: Agonist-induced hydrolysis of inositol phospholipids (PI hydrolysis) in CHO-K1 cells expressing m3; assay type: cell-based; settings: for Emax: CHO-K1, 0.5 h, read-out: MAXIMUM RESPONSE BY MUSCARINIC AGONISTS, m3 cells; for EC50: CHO-K1 m3 cells, EC50 calculated as 50% of the maximum response of the PI hydrolysis, read-out: POTENCY ON PI HYDROLYSIS, EC 50, m3 cells
T1 construct: expressed in transfected cells
T1 sequence (P20309 whole entry): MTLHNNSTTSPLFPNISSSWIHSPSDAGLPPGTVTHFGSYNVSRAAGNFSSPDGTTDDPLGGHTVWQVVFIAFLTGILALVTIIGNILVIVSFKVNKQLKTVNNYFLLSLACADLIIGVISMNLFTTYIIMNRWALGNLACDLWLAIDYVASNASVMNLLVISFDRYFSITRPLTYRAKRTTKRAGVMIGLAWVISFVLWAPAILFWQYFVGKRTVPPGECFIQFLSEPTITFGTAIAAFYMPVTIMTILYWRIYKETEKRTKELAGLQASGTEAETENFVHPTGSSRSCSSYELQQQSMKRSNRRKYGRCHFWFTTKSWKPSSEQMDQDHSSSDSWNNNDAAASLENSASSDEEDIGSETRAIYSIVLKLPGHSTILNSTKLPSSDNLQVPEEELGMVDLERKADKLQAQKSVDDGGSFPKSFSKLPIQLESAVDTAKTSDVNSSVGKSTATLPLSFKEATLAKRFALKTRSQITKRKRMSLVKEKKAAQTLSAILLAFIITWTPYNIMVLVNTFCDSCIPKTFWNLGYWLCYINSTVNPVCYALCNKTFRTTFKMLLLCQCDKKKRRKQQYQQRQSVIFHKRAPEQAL
Protocol: (§1) Chinese hamster ovary (CHO-K1) cells stably expressing the human m3 or m5 receptor subtype were grown to confluency in DMEM/F12 medium containing 10% fetal calf serum and 1 unit/ml penicillin/streptomycin in a 37° C. incubator. Activity of muscarinic agonists in these cells was determined by measuring agonist induced hydrolysis of inositol phospholipids. Confluent cells plated at 0.1×10^6 cells/well in a 24-well dish were incubated in medium containing 4 μCi/ml myo-[2-^3 H] inositol overnight. This labels the inositol phospholipids in the cells. The next morning, the cells were washed to remove excess medium and incubated for 10 minutes before and 30 minutes after the addition of various muscarinic agonists in assay buffer containing 10 mM LiCl. The hydrolysis of inositol phospholipids generates inositol phosphates which were extracted and separated on dowex-formate columns and radioactivity determined. Radioactivity of the unhydrolyzed inositol phospholipids was also determined and percent hydrolysis calculated as a measure of agonist activity.
(§2) The EC50 was calculated as 50% of the maximum response of the PI hydrolysis

[2] = molecular target: T2, human m5 receptor subtype (Homo sapiens, UniProt P08912); assay: Agonist-induced hydrolysis of inositol phospholipids (PI hydrolysis) in CHO-K1 cells expressing m5; assay type: cell-based; settings: for Emax: CHO-K1, 0.5 h; for EC50: CHO-K1 m5 cells, EC50 calculated as 50% of the maximum response of the PI hydrolysis, read-out: POTENCY ON PI HYDROLYSIS, EC 50, m5 cells; for m3/m5 ratio: ratio of EC50 at m3 to EC50 at m5, 30 min
T2 construct: expressed in transfected cells
T2 sequence (P08912 1-532): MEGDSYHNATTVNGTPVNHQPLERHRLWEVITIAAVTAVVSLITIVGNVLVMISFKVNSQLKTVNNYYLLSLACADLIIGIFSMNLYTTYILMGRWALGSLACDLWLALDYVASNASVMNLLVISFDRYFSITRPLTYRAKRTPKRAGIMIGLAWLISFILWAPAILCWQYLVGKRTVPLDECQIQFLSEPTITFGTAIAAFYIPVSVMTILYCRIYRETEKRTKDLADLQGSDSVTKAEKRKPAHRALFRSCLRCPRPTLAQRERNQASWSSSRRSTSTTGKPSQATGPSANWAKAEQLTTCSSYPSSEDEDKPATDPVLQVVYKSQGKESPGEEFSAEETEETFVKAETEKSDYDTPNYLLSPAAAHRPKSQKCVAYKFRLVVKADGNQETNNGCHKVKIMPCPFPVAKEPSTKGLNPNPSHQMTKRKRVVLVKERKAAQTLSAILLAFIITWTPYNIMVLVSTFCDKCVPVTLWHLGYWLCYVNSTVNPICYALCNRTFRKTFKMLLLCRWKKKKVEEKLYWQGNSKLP
Protocol: as §1, §2

[3] = Test for lowering IOP and miosis; assay type: in vivo; settings: for IOP-lowering: in vivo; for miosis: side effect when tested for lowering IOP
[4] = read-out: MAXIMUM RESPONSE BY MUSCARINIC AGONISTS, m5 cells, read-out: MAXIMUM RESPONSE BY […] AGONISTS, m5 cells

| Emax [1] [%] | EC50 [1] [nM] | EC50 [2] [nM] | Emax [2, 4] [%] | m3/m5 ratio [2] | Emax ([2]; read-out: hydrolysis elicited relative to carbachol at the m5 receptor) [%] | Compound | Emax ([2]; read-out: MAXIMUM RESPONSE BY MUSCARINIC AGONISTS, m5 cells) [%] | IOP-lowering [3] | miosis [3] |
| --- | --- | --- | --- | --- | --- | --- | --- | --- | --- |
| 70 ± 7 | 20000 | 5000 | 84 ± 11 | 4 | – | CC[C@H]1C(=O)NC[C@@H]1Cc1cncn1C [AGN 190456, 3R, 4R-ethyl-[(1-methyl-1H-imidazol-5-yl)methyl]-2-pyrrolidinone] | – | effective | minimal miosis |
| 30 ± 3 | 300 | 60 | 30 ± 2 | 5 | 30 | CC(=O)N(C)C(C)C#CCN1CCCC1 (centres unmarked) [BM-5, N-Methyl-N-(1-methyl-4-pyrrolidino-2-butynyl)acetamide] | – | IOP-lowering | miosis |

| Compound | Emax [1] [%] | EC50 [1] [nM] | EC50 [2] [nM] | Emax [2, 4] [%] | m3/m5 ratio [2] | Emax ([2]; read-out: hydrolysis elicited relative to carbachol at the m5 receptor) [%] | Emax ([2]; read-out: MAXIMUM RESPONSE BY MUSCARINIC AGONISTS, m5 cells) [%] | IOP-lowering [3] | miosis [3] |
| --- | --- | --- | --- | --- | --- | --- | --- | --- | --- |
| CC1CCC(=O)N1CC#CCN1CCC1 (centres unmarked) [BR-370, N-(4-Azetidinyl-2-butynyl)-5-methyl-2-pyrrolidone] | 96 ± 40 | 800 | 700 | – | – | – | 110 ± 8 | – | – |
| C[N+](C)(C)CCOC(N)=O [CARBACHOL, carbachol] | – | – | – | 100 | – | – | – | – | – |
